The values below come from US9394282B2, “Pyrazole carboxamides as Janus kinase inhibitors” (Merck Sharp & Dohme Corp., priority 2011, dated 2016).

The structures appear in SMILES notation. Where only a bound is given, the exact number is not on record here.

JAK2, sequence (O60674 849-1124): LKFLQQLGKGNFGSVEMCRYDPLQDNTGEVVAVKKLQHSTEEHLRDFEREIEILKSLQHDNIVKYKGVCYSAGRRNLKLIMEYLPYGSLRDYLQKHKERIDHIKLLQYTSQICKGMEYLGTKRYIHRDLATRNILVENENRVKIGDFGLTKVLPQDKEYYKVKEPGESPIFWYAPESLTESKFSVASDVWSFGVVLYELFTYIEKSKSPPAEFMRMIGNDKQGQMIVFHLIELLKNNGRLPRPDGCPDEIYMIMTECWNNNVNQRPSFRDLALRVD

One test addresses JAK2 (Homo sapiens (Human), UniProt O60674). Nature of the test: Jak biochemical HTRF assay, JAK2. The note with it: recombinant purified GST-tagged catalytic domain; HTRF format; [ATP] 8.5 μM. The source says: Jak Biochemical HTRF Assay Protocol
Subsequent reagent additions employed an Agilent Bravo.
(In general: In TR-FRET formats the signal depends on donor and acceptor labels being close together.)
By IC50 is commonly meant the concentration that inhibits the measured activity by half. As to `N#C[C@@H]1CN(Cc2cscn2)CC[C@H]1n1cc(C(N)=O)c(Nc2ccc(F)cc2)n1` (racemic) [Example 6-27, 1-[(3R,4R and 3S,4S)-3-cyano-1-(1,3-thiazol-4-ylmethyl)piperidin-4-yl]-3-[(4-fluorophenyl)amino]-1H-pyrazole-4-carboxamide], the IC50 turned out to be 0.037 µM.

For `C#CCCOC(=O)N1CC[C@@H](n2cc(C(N)=O)c(Nc3ccc(F)cc3)n2)[C@H](C#N)C1` (racemic) [Example 5-34, but-3-yn-1-yl (3R,4R and 3S,4S)-4-{4-carbamoyl-3-[(4-fluorophenyl)amino]-1H-pyrazol-1-yl}-3-cyanopiperidine-1-carboxylate], the IC50 worked out at 0.154 µM.

Take `COCCOC(=O)N1CC[C@@H](C#N)C(n2cc(C(N)=O)c(Nc3ccc(F)cc3)n2)C1` (mixture of isomers) [Example 5-83, 2-methoxyethyl (3S,4R and 3R,4S)-3-{4-carbamoyl-3-[(4-fluorophenyl)amino]-1H-pyrazol-1-yl}-4-cyanopiperidine-1-carboxylate]: the IC50 worked out at 0.12 µM.

On to `N#C[C@@H]1CN(C(=O)OC2CCCCC2)CC[C@@H]1n1cc(C(N)=O)c(Nc2ccc(F)cc2)n1` (racemic) [Example 5-61, cyclohexyl (3R,4S and 3S,4R)-4-{4-carbamoyl-3-[(4-fluorophenyl)amino]-1H-pyrazol-1-yl}-3-cyanopiperidine-1-carboxylate], for which the IC50 was > 1.5 µM.

Take `N#C[C@@H]1CS(=O)(=O)CC1n1cc(C(N)=O)c(Nc2ccc(S(=O)(=O)C(F)(F)F)cc2)n1` (mixture of isomers) [Example 8-7, 1-((3S,4R and 3R,4S)-4-cyano-1,1-dioxidotetrahydrothiophen-3-yl)-3-((4-((trifluoromethyl)sulfonyl)phenyl)amino)-1H-pyrazole-4-carboxamide]: the IC50 was determined as 0.015 µM.

On to `N#C[C@@H]1CN(C(=O)OCc2ccccc2)CC[C@@H]1n1cc(C(N)=O)c(Nc2ccc(F)cc2)n1` (racemic) [Example 5-52, benzyl (3R,4S and 3S,4R)-4-{4-carbamoyl-3-[(4-fluorophenyl)amino]-1H-pyrazol-1-yl}-3-cyanopiperidine-1-carboxylate], for which the IC50 is > 1.5 µM.

With `N#C[C@H]1CS(=O)(=O)CC1n1cc(C(N)=O)c(Nc2ccc(F)cc2)n1` (mixture of isomers) [Example 8-5, 1-((3S,4S and 3R,4R)-4-cyano-1,1-dioxidotetrahydrothiophen-3-yl)-3-((4-fluorophenyl)amino)-1H-pyrazole-4-carboxamide], the IC50 stood at 0.032 µM.

For the compound `CN1CCN(CCOC(=O)N2CC[C@@H](n3cc(C(N)=O)c(Nc4ccc(F)cc4)n3)[C@H](C#N)C2)CC1` (racemic) [Example 5-24, 2-(4-methylpiperazin-1-yl)ethyl (3R,4R and 3S,4S)-4-{4-carbamoyl-3-[(4-fluorophenyl)amino]-1H-pyrazol-1-yl}-3-cyanopiperidine-1-carboxylate], the concentration for half-maximal inhibition (IC50) came out at 1.07 µM.

On to `N#C[C@@H]1CCN(Cc2cc(F)ccn2)C[C@H]1n1cc(C(N)=O)c(Nc2ccc(F)cc2)n1` (racemic) [Example 6-7, 1-{(3S,4R and 3R,4S)-4-cyano-1-[(4-fluoropyridin-2-yl)methyl]piperidin-3-yl}-3-[(4-fluorophenyl)amino]-1H-pyrazole-4-carboxamide], for which the IC50 was 0.047 µM.

`CN(C)C(=O)c1ccc(Nc2nn([C@H]3COCC[C@@H]3C#N)cc2C(N)=O)cc1` (single isomer, unassigned) [Example 9-34, 1-[(3R,4S or 3S,4R)-4-cyanotetrahydro-2H-pyran-3-yl]-3-{[4-(dimethylcarbamoyl)phenyl]amino}-1H-pyrazole-4-carboxamide]: the IC50 came to 0.0002 µM.

Staying with this test, now noted: recombinant purified GST-tagged catalytic domain; HTRF format; [ATP] […].
For `N#C[C@@H]1CS(=O)(=O)C[C@H]1n1cc(C(N)=O)c(Nc2ccc(F)cc2)n1` (single isomer, unassigned) [Example 12-2, 1-((3S,4R or 3R,4S)-4-Cyano-1,1-dioxidotetrahydrothiophen-3-yl)-3-((4-fluorophenyl)amino)-1H-pyrazole-4-carboxamide], the IC50 was determined as 0.016 µM.
